Test results reported in ChEMBL document CHEMBL2202983, “Structure-anti-leukemic activity relationship study of ortho-dihydroxycoumarins in U-937 cells: key role of the δ-lactone ring in determining differentiation-inducing potency and selective pro-apoptotic action” (Bioorg Med Chem, 2012).
One block for each compound: values may come before it. Calls of active or inactive are those of the source. No cut-off for these calls is given here.

Legend:
[1] = system: U-937; experiment: Antiproliferative activity against human U937 cells assessed as incorporation of [3H]-methyl-thymidine after 12 hrs by scintillation counting; format: functional, cell-based
[2] = system: U-937; experiment: Pro-oxidant activity in human U937 cells assessed as DCF-DA oxidation at 10 to 250 uM after 48 hrs by fluorescence assay; format: functional, cell-based
[3] = system: U-937; experiment: Inhibition of clonogenic activity in human U937 cells assessed as reduction of colony formation in soft agar at 100 to 250 uM after 24 hrs using crystal violet staining; format: functional, cell-based
[4] = system: U-937; experiment: Cytotoxicity against human U937 cells after 48 hrs by trypan blue assay; format: functional; details: U-937, 48 h
[5] = system: U-937; experiment: Induction of apoptosis in human U937 cells assessed as activation of caspase-3 at 500 uM after 24 hrs by colorimetric assay; format: functional, cell-based
[6] = system: U-937; experiment: Induction of cell differentiation in human U937 cells assessed as increase of CD11b and CD14 expression at 500 uM after 72 hrs by FACS flow cytometer analysis; format: functional, cell-based
[7] = Pro-oxidant activity in 0.1 M potassium phosphate buffer at pH 7.4 assessed as increase of oxidation potential by cyclic voltammetry analysis; format: physicochemical
[8] = system: U-937; experiment: Induction of cell differentiation in human U937 cells assessed as increase of CD11b and CD14 expression at 50 uM after 72 hrs by FACS flow cytometer analysis; format: functional, cell-based
[9] = system: Jurkat; experiment: Cytotoxicity against human Jurkat at 250 uM after 48 hrs by trypan blue assay; format: functional, cell-based
[10] = system: U-937; experiment: Induction of apoptosis in human U937 cells assessed as increase of caspase-8 cleavage at 250 uM after 12 hrs by Western blot analysis; format: functional, cell-based
[11] = Induction of free radicals production in RPMI 1640 medium at pH 7.4 by electron spin resonance analysis; format: physicochemical
[12] = system: U-937; experiment: Cell cycle arrest in human U937 cells assessed as accumulation at sub-G0/G1 phase at 250 uM after 24 hrs using propidium iodide staining by FACS analysis; format: functional, cell-based
[13] = system: U-937; experiment: Induction of apoptosis in human U937 cells assessed as activation of caspase-3 at 250 uM after 24 hrs by colorimetric assay in presence of caspase-8 inhibitor Z-LETD-FMK; format: functional, cell-based
[14] = system: U-937; experiment: Induction of cell differentiation in human U937 cells assessed as increase of CD88 expression at 50 uM after 72 hrs by FACS flow cytometer analysis; format: functional, cell-based
[15] = system: PBMC; experiment: Cytotoxicity against human PBMC at 250 uM after 48 hrs by trypan blue assay; format: cell-based
[16] = system: U-937; experiment: Induction of apoptosis in human U937 cells assessed as activation of caspase-3 at 250 uM after 24 hrs by colorimetric assay in presence of caspase-9 inhibitor Z-LEHD-FMK; format: functional, cell-based
[17] = system: U-937; experiment: Induction of apoptosis in human U937 cells assessed as reduction of normal cells at 250 uM after 24 hrs by Annexin V-FITC double staining; format: functional, cell-based
[18] = system: U-937; experiment: Induction of cell differentiation in human U937 cells assessed as increase of rhC5a-induced response at 50 uM after 72 hrs by FACS flow cytometer analysis; format: functional, cell-based
[19] = system: U-937; experiment: Induction of apoptosis in human U937 cells assessed as increase of caspase-9 cleavage at 250 uM after 12 hrs by Western blot analysis; format: functional, cell-based
[20] = system: U-937; experiment: Induction of apoptosis in human U937 cells assessed as increase of caspase-9 cleavage at 250 uM by Western blot analysis; format: functional, cell-based; details: TDE = time-dependent effect
[21] = system: Jurkat; experiment: Induction of apoptosis in human Jurkat cells assessed as activation of caspase-3-mediated PARP cleavage at 250 uM after 24 hrs by colorimetric assay; format: functional, cell-based
[22] = system: U-937; experiment: Pro-oxidant activity in human U937 cells assessed as DCF-DA oxidation up to 6 hrs by fluorescence assay; format: functional, cell-based
[23] = Induction of free radicals production in carbonate buffer at pH 9 by electron spin resonance analysis; format: physicochemical
[24] = system: U-937; experiment: Induction of DNA damage in human U937 cells; format: functional, cell-based
[25] = system: U-937; experiment: Induction of apoptosis in human U937 cells assessed as phosphatidylserine expression in plasma membrane at 250 uM after 24 hrs by Annexin V-FITC double staining; format: functional, cell-based
[26] = system: U-937; experiment: Pro-oxidant activity in human U937 cells assessed as DCF-DA oxidation at 10 to 250 uM by fluorescence assay; format: functional, cell-based; details: TDE = time-dependent effect
[27] = system: U-937; experiment: Induction of apoptosis in human U937 cells assessed as activation of caspase-3 at 250 uM after 24 hrs by colorimetric assay; format: functional, cell-based
[28] = system: U-937; experiment: Induction of apoptosis in human U937 cells assessed as PARP cleavage at 250 uM after 24 hrs by Western blot analysis; format: functional, cell-based
[29] = system: U-937; experiment: Induction of apoptosis in human U937 cells assessed as active 11 kDa fragment of caspase-3 at 250 uM after 24 hrs by Western blot analysis; format: functional, cell-based
[30] = system: U-937; experiment: Induction of apoptosis in human U937 cells assessed as phosphatidylserine expression in plasma membrane at 500 uM after 24 hrs by Annexin V-FITC double staining; format: functional, cell-based
[31] = system: U-937; experiment: Induction of cell differentiation in human U937 cells assessed as increase of CD88 expression at 500 uM after 72 hrs by FACS flow cytometer analysis; format: functional, cell-based
[32] = system: PBMC; experiment: Cytotoxicity against human PBMC at 500 uM after 48 hrs by trypan blue assay; format: cell-based
[33] = system: Jurkat; experiment: Induction of apoptosis in human Jurkat cells assessed as activation of caspase-3-mediated PARP cleavage at 500 uM after 24 hrs by colorimetric assay; format: functional, cell-based
[34] = system: U-937; experiment: Induction of cell differentiation in human U937 cells assessed as increase of rhC5a-induced response at 500 uM after 72 hrs by FACS flow cytometer analysis; format: functional, cell-based
[35] = system: U-937; experiment: Induction of apoptosis in human U937 cells assessed as reduction of normal cells at 1000 uM after 24 hrs by Annexin V-FITC double staining; format: functional, cell-based
[36] = system: U-937; experiment: Induction of apoptosis in human U937 cells assessed as activation of caspase-3 at 1000 uM after 48 hrs by colorimetric assay; format: functional, cell-based
[37] = system: U-937; experiment: Induction of cell differentiation in human U937 cells assessed as increase of CD11b and CD14 expression at 250 to 500 uM after 72 hrs by FACS flow cytometer analysis; format: functional, cell-based
[38] = system: Jurkat; experiment: Induction of apoptosis in human Jurkat cells assessed as activation of caspase-3 at 500 uM after 24 hrs by colorimetric assay; format: functional, cell-based
[39] = system: Jurkat; experiment: Induction of apoptosis in human Jurkat cells at 500 uM after 48 hrs by Annexin V-FITC double staining; format: functional, cell-based
[40] = system: U-937; experiment: Induction of apoptosis in human U937 cells assessed as phosphatidylserine expression in plasma membrane at 1000 uM after 24 hrs by Annexin V-FITC double staining; format: functional, cell-based
[41] = system: U-937; experiment: Induction of cell differentiation in human U937 cells assessed as increase of rhC5a-induced response at 250 to 500 uM after 72 hrs by FACS flow cytometer analysis; format: functional, cell-based
[42] = system: U-937; experiment: Induction of cell differentiation in human U937 cells assessed as increase of CD88 expression at 250 to 500 uM after 72 hrs by FACS flow cytometer analysis; format: functional, cell-based

IC50 [1]: 711 µM
Compound: Cc1cc(=O)oc2cc(O)ccc12 [HYMECROMONE]
Activity [2]: inactive
colony formation inhibition (active/not active) [3]: inactive
CC50 [4]: > 2000 µM
Activity [5]: inactive
Activity [6]: Active

Activity [7]: Active
IC50 [1]: > 2000 µM
Compound: COc1ccc(/C=C/C(=O)O)cc1OC
CC50 [4]: > 2000 µM

Activity [7]: Active
IC50 [1]: 83.2 µM
Activity [11]: Active
Activity [23]: Active
Compound: Cc1cc(=O)oc2c(O)c(O)ccc12 [4-METHYLDAPHNETIN]
Activity [8]: Active
Activity [9]: Active
Activity [10]: inactive
Activity [12]: Active
Activity [13]: Active
colony formation inhibition (active/not active) [3]: Active
Activity [14]: Active
CC50 [4]: 120 µM
Activity [15]: Toxic
Activity [16]: inactive
Activity [17]: Active
Activity [18]: Active
Activity [19]: Active
Activity [20]: tde
Activity [21]: Active
Activity [22]: Dose-dependent effect
Activity [24]: inactive
Activity [25]: Active
Activity [26]: tde
Activity [27]: Active
Activity [28]: Active
Activity [29]: Active

Activity [7]: Not Active
IC50 [1]: > 2000 µM
Compound: Cc1cc(O)cc(=O)o1
CC50 [4]: > 2000 µM
Activity [6]: Active

Activity [7]: Not Active
IC50 [1]: 590 µM
Compound: COc1cc2ccc(=O)oc2cc1OC [SCOPARONE]
CC50 [4]: 1290 µM
Activity [5]: inactive

Activity [7]: Not Active
IC50 [1]: > 2000 µM
Compound: O=c1cccco1
CC50 [4]: > 2000 µM
Activity [6]: Active

IC50 [1]: > 2000 µM
Compound: Cc1cc(=O)oc2cc(O)cc(O)c12 [5,7-DIHYDROXY-4-METHYLCOUMARIN]
CC50 [4]: > 2000 µM
Activity [5]: inactive
Activity [6]: Active

IC50 [1]: > 2000 µM
Compound: O=C(O)/C=C/c1ccc(O)cc1 [COUMARIC ACID]
CC50 [4]: > 2000 µM
Activity [6]: inactive

Compound: Cc1cc(=O)oc2ccc(O)cc12
CC50 [4]: > 2000 µM
Activity [5]: inactive
Activity [6]: Active

IC50 [1]: 454 µM
Compound: CC(=O)c1c(O)ccc2c(C)cc(=O)oc12
CC50 [4]: > 1000 µM
Activity [5]: inactive
Activity [6]: Active

IC50 [1]: 976 µM
Compound: COc1cc2ccc(=O)oc2cc1O [SCOPOLETIN]
CC50 [4]: > 2000 µM
Activity [5]: inactive
Activity [6]: inactive

Activity [7]: Not Active
IC50 [1]: > 2000 µM
Compound: COc1cc(C)oc(=O)c1
CC50 [4]: > 2000 µM
Activity [6]: Active

Activity [7]: Not Active
IC50 [1]: 736 µM
Compound: COc1ccc2c(C)cc(=O)oc2c1OC
Activity [30]: Active
Activity [2]: inactive
colony formation inhibition (active/not active) [3]: inactive
CC50 [4]: > 2000 µM
Activity [31]: inactive
Activity [32]: Non-toxic
Activity [33]: inactive
Activity [5]: inactive
Activity [6]: inactive
Activity [34]: inactive

IC50 [1]: 316 µM
Activity [11]: Active
Activity [23]: Active
Compound: O=C(O)/C=C/c1ccc(O)c(O)c1 [CAFFEIC ACID]
colony formation inhibition (active/not active) [3]: inactive
CC50 [4]: > 2000 µM
Activity [35]: inactive
Activity [36]: inactive

IC50 [1]: 97.4 µM
Activity [11]: Active
Activity [23]: Active
Compound: Cc1cc(=O)oc2cc(O)c(O)cc12 [4-METHYLESCULETIN]
Activity [12]: Active
colony formation inhibition (active/not active) [3]: Active
CC50 [4]: 76 µM
Activity [17]: Active
Activity [27]: Active
Activity [28]: Active
Activity [29]: Active

IC50 [1]: 143 µM
Activity [11]: Active
Activity [23]: Active
Compound: COc1cc2ccc(=O)oc2c(O)c1O [FRAXETIN]
Activity [12]: Active
colony formation inhibition (active/not active) [3]: Active
CC50 [4]: 70.2 µM
Activity [17]: Active
Activity [27]: Active
Activity [28]: Active
Activity [29]: Active

IC50 [1]: 771 µM
Compound: Cc1cc(=O)oc2cc(O)c(Cl)cc12
CC50 [4]: 734 µM
Activity [5]: inactive
Activity [6]: inactive

IC50 [1]: 143 µM
Activity [11]: Active
Activity [23]: Active
Compound: O=c1ccc2cc(O)c(O)cc2o1 [ESCULETIN]
Activity [12]: Active
colony formation inhibition (active/not active) [3]: Active
CC50 [4]: 108 µM
Activity [17]: Active
Activity [27]: Active
Activity [28]: Active
Activity [29]: Active

Activity [7]: Not Active
IC50 [1]: > 2000 µM
Compound: Cc1cc(C)oc(=O)c1
CC50 [4]: > 2000 µM
Activity [6]: Active

Activity [7]: Active
IC50 [1]: > 2000 µM
Compound: COc1ccc(CCC(=O)O)cc1OC
Activity [2]: inactive
CC50 [4]: > 2000 µM
Activity [31]: inactive
Activity [32]: Non-toxic
Activity [33]: inactive
Activity [6]: inactive
Activity [34]: inactive

Activity [7]: Active
IC50 [1]: 213 µM
Activity [11]: Active
Activity [23]: Active
Compound: O=C(O)CCc1ccc(O)c(O)c1 [DIHYDROCAFFEIC ACID]
Activity [37]: Active
Activity [38]: Active
Activity [9]: Active
Activity [2]: inactive
colony formation inhibition (active/not active) [3]: inactive
CC50 [4]: > 2000 µM
Activity [39]: inactive
Activity [35]: inactive
Activity [33]: Active
Activity [24]: inactive
Activity [40]: Active
Activity [41]: Active
Activity [36]: inactive
Activity [42]: Active

IC50 [1]: 259 µM
Compound: Cc1cc(O)nc2cc(O)ccc12
CC50 [4]: > 1000 µM
Activity [5]: inactive
Activity [6]: Active
